Laboratory results: patent US6982246B1, “Cytomodulating peptide for inhibiting lymphocyte activity” (SangStat Medical Corporation, priority 1995, dated 2006)
“Also recorded” adds a separate entry of the source. Ends that are not written are not given here. * marks the point of attachment. Biotin = O=C1N[C@H]2[C@H](CS[C@H]2CCCCC(=O)*)N1

How the values were obtained:
[1] = tested on: anti-CD3 stimulation of CBA spleen cells; assay: Anti-CD3 stimulation ([3H]-TdR incorporation); type: cell-based, mouse; details: for inhibition of anti-CD3 stimulation: result in words
Protocol: Anti-CD3 Stimulation and Mixed Lymphocyte Culture. Spleen cells isolated from CBA mice were stimulated (2×10^5/well) with anti-CD3 monoclonal antibody (Pharmingen, San Diego) at a final concentration of 0.1 to 1 μg/ml in 96-well, round-bottom microculture plates (Nunc, Denmark). Peptides at various concentrations were added at the beginning of the culture. Cells were incubated for a period of 3 days at 37° C., 5% CO2. Twenty-four hours before harvesting 1 μCi[^3H]-TdR (Amersham, Arlington Heights, Ill.) was added to individual wells. Cells were then harvested using a Filtermate 196 Harvester (Packard, Downers Grove, Ill.) and the degree of thymidine incorporation was measured using a TopCount Microplate Scintillation Counter (Packard). For MLR, CBA spleen cells were used as responders and B6 spleen cells as stimulators. B6 spleen cells were pre- treated with mitomycin-C (Calbiochem, La Jolla, Calif.) at 0.5 mg/ml for 20 min at 36° C. Cells were then washed three times to remove excess mitomycin-C. CBA spleen cells (2×10^5/well) were cultured with an equal number of mitomycin C-treated B6 cells in serum-free Aim V medium for periods of 3 to 6 days. One microcurie of [^3H]-TdR was added to the culture 24 hour before cell harvesting and the degree of thymidine incorporation was quantified as described above.

[2] = tested on: CTL activity (CBA to B6 effector cells, EL4 target cells); assay: Cytotoxic T cell activity (51Cr release); type: cell-based, mouse; details: for inhibition of CTL activity: result in words
Protocol: Cytotoxic T Cell Activity. To assay the effect of peptides on cytotoxic T cell activity, CBA to B6 effector cells were prepared following a 6-day culture of 4×10^6 CBA spleen cells with 5×10^6 mitomycin-treated B6 spleen cells in wells of a 24 well plate (Nuncion Delta, Nunc, Denmark) in RPMI-1640 with 10% FBS. Effector cells were then harvested and washed. EL4 (H-2^b), a mouse lymphoma induced in C57BL/6N was used as target cells. Cultured EL4 cells were maintained and sub-cultured once every three days […] Effector (E) and target (T) cells were then added into V-shaped tissue culture plates (Nunc, Denmark) at E:T ratios of 3:1, 10:1, 30:1, 100:1, respectively. Peptides were diluted to the working concentrations with R-10 medium and added at the beginning of the 4-hour incubation period. For the determination of maximal release, 1% Triton X-100 was added to separate wells. Plates were then centrifuged for 2 min to increase cellular contact before the 4-hour incubation period. After incubation, 75 μl supernatant from each well was collected and the amount of ^51Cr was counted using a TopCount Scintillation Counter. The degree of cell lysis was calculated using the formula below: [formula]

[3] = tested on: anti-H2b CTL effector population; assay: Binding of biotinylated peptide to CTL effectors; design: species or system mouse; details: cells activated (IL-2 receptor expression)
[4] = tested on: human peripheral blood lymphocytes; assay: Staining of PBLs with biotinylated peptide panel; type: binding; details: for binding to PBLs: 50 μg/ml biotinylated peptide; for binding on resting lymphocytes: majority of binding on macrophage/polymorphonuclear leukocytes population
Description: (§1) In the next study, human peripheral blood lymphocytes were isolated and stained with the biotinylated peptide panel. […] Using human and murine cell lines, a spectrum of binding affinity was observed.

[5] = tested on: Jurkat cell line E6-1; assay: Binding of biotinylated peptide to cell lines; details: among human and murine cell lines
Description: as §1

[6] = tested on: NK cell activity (killing of YAC-1 cells by CBA spleen cells); assay: NK cell activity (51Cr release); type: cell-based, mouse; details: YAC-1 targets, freshly isolated CBA spleen cells
Protocol: NK Cell Activity. YAC-1, a mouse lymphoma which was induced by inoculation of Moloney leukemia virus into a newborn A/Sn mouse was used as the NK cell target (ATCC TIB 160). Four thousand sodium chromate labeled YAC-1 cells were cultured with different concentrations of freshly isolated CBA spleen cells (effector to target ratios: 62.5:1, 125:1, 250:1, 500:1) in V-shaped bottom plates with RPMI-1640 containing 10% FBS for 4 h at 37° C., 5% CO2. The degree of cell lysis was quantified by the release of ^51Cr into the supernatants. After incubation, plates were centrifuged and 75 μl of supernatant was collected. The degree of cell lysis was measured using a TopCount Scintillation Counter. The degree of cell lysis was calculated using the formula below: [formula]

[7] = tested on: B6 hearts in CBA recipients; assay: Heterotopic heart transplantation; type: in vivo, mouse; details: 10 mg/kg/day, day 0 to day 10; untreated MST 7.5+/−1.1; p=0.0007
Protocol: The in vivo immunosuppressive activity of the peptides was evaluated in heterotopic heart transplantation in the model described by Ono and Lindsey, (J Thorac Cardiovasc Surg 1969, 7:225). CBA recipients of B6 hearts were treated 10 mg/kg/day of p15 from day 0 to day 10 after transplantation. Untreated recipients rejected the allografts between day 6 and 10 (MST=7.5+/−1.1 days). Treatment of recipients with p15 lead to a significant increase of graft survival (MST=14.4+/−1.5 days, p vs control=0.0007; Mann-Whitney Test).

Substance | inhibition of anti-CD3 stimulation at 5 μg/ml [1] | inhibition of anti-CD3 stimulation at 50 μg/ml [1] | inhibition of anti-CD3 stimulation [1] | inhibition of CTL activity [2] | further results
3: Bt-SGSG-RENLRTALRY (Biotin-SGSGRENLRTALRY-OH) [compound 3] | substantially less inhibition | substantially complete inhibition | inhibit the anti-CD3 stimulation in a dose dependent manner |  | 
4: Bt-SGSG-RVNLRTALRY [compound 4] |  |  |  | inhibitory activity substantially greater than contol | 
16: Bi-SGSG-LRIALRYYWD [compound 16] | substantially less inhibition | substantially complete inhibition | inhibit the anti-CD3 stimulation in a dose dependent manner | inhibitory activity substantially greater than contol | 
17: Bt-SGSG-IALRYYWDS [compound 17] | substantially less inhibition | substantially complete inhibition | inhibit the anti-CD3 stimulation in a dose dependent manner |  | 
19: Bt-SGSG-LRYYWDSEA [compound 19] |  |  |  | inhibitory activity substantially greater than contol | 
20: Bt-SGSG-RIALRAAA [compound 20] |  |  |  | inhibitory activity substantially greater than contol | 
23: Bt-SGSG-NLRIALRY [compound 23] |  |  |  | inhibitory activity substantially greater than contol | 
27: Bt-SGSG-QTDRENLRIA [compound 27] | significant levels of inhibition |  |  | inhibitory activity substantially greater than contol | 
34: Bt-SGSG-REALRIALRY [compound 34] |  |  |  | inhibitory activity substantially greater than contol | 
40: Bt-SGSG-RENLRIALRA [compound 40] | substantially less inhibition | substantially complete inhibition | inhibit the anti-CD3 stimulation in a dose dependent manner |  | 
41: Bt-SGSG-RVDLRTLRGY [compound 41] | substantially less inhibition | substantially complete inhibition | inhibit the anti-CD3 stimulation in a dose dependent manner |  | 
42: Bt-SGSG-RVSLRNLRGY [compound 42] | significant levels of inhibition | substantially complete inhibition | inhibit the anti-CD3 stimulation in a dose dependent manner |  | 
43: Bt-SGSG-RVNLRTLRRY; marked E in the table [compound 43] | significant levels of inhibition | substantially complete inhibition | inhibit the anti-CD3 stimulation in a dose dependent manner |  | 
Bt-SGSG-NLRIALRYYW; positions 77–85 terminating with tryptophan (Biotin-SGSGNLRIALRYYW-OH) [peptide 15] | substantially less inhibition | substantially complete inhibition | inhibit the anti-CD3 stimulation in a dose dependent manner | inhibited CTL activity; also recorded: highest degree of inhibition | CTL inhibition across different MHC combinations ([2]; H2k>H2b, H2d>H2b, H2k>H2d strain combinations): greater activity than B2702 monomer; also recorded: non-MHC restricted; percentage lysis in presence of peptide ([2]; lysis without peptide 42%): 7%; binding to activated CTL effector cells [3]: binding of peptide 15 was observed; binding to PBLs [4]: bound to the PBLs; binding on resting lymphocytes [4]: little or no binding on resting lymphocytes; degree of binding to cell line [5]: highest degree of binding; inhibition of NK cell killing [6]: able to inhibit the killing of YAC-1; graft survival MST [7]: 14.4 ± 1.5 days
Bue-1: 2702 MAP; no sequence printed in the table (SGSGRENLRIALRY; not fully specified; also: MAP construct) | substantially less inhibition | substantially complete inhibition | inhibit the anti-CD3 stimulation in a dose dependent manner |  | 
Bue-3: ENLRIALR | substantially less inhibition | substantially complete inhibition | inhibit the anti-CD3 stimulation in a dose dependent manner |  | 
Bue-4: ENLRIAL | substantially less inhibition | substantially complete inhibition | inhibit the anti-CD3 stimulation in a dose dependent manner |  | 
Bue-5: NLRIAL | significant levels of inhibition | substantially complete inhibition | inhibit the anti-CD3 stimulation in a dose dependent manner |  | 
Woo-2: Bt-SGSG-RENLRIALRY (Biotin-SGSGRENLRIALRY-OH) | substantially less inhibition | substantially complete inhibition | inhibit the anti-CD3 stimulation in a dose dependent manner |  | 
peptide 2: Bi-SGSG-RVNLRIALRY (Biotin-SGSGRVNLRIALRY-OH) | substantially less inhibition | substantially complete inhibition | inhibit the anti-CD3 stimulation in a dose dependent manner | inhibited CTL activity | binding to PBLs [4]: bound to the PBLs; binding on resting lymphocytes [4]: little or no binding on resting lymphocytes
